Source: ChEMBL document CHEMBL5665443, “Enzyme Inhibitor Single Concentration assay results for EUbOPEN Chemogenomics Library” (2024)
Where a SMILES comes first, the peptide text is derived from it.

What was measured:
Details in all cases: Hit No
[1] = target: Methyl-CpG-binding domain protein 4 (Homo sapiens) (UniProt O95243);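 further: MBD4 activity read as fluorescence at 594 nm from cleavage and release of a quenched duplex DNA oligonucleotide, with APE1 coupled to incise the strand and raise turnover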
Methyl-CpG-binding domain protein 4 (Homo sapiens), sequence (O95243 whole entry, the tested form may be a part): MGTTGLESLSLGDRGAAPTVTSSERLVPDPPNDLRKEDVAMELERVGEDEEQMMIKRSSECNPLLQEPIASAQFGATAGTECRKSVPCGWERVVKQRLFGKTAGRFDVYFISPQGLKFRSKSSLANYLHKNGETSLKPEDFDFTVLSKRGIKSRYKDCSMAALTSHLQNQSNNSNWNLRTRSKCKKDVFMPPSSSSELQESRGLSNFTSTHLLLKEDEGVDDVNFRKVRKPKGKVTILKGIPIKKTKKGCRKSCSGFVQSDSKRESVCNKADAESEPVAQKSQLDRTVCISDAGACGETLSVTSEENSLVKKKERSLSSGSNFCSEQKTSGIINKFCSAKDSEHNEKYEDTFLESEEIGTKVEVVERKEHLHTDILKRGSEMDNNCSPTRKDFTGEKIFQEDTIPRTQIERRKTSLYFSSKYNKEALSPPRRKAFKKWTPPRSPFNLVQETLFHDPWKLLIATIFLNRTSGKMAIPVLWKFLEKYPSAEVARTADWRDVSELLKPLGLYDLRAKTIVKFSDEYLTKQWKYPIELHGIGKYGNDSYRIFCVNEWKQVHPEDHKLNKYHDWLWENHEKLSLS
Description: Inhibition of MBD4 by quantifying inhibition of MBD4-mediated cleavage and dissociation of quenched duplex DNA oligonucleotides, measured as fluorescence at 594 nm. To generate a functional strand incision and increase turn-over this assay is coupled to APE1.

[2] = target: T1, Adenine DNA glycosylase (Homo sapiens) (UniProt Q9UIF7);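 further: human MUTYH activity read as 594 nm fluorescence from cleavage and release of a quenched DNA duplex, coupled with APE1 for strand incision, lower signal meaning inhibition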
T1 sequence (whole entry): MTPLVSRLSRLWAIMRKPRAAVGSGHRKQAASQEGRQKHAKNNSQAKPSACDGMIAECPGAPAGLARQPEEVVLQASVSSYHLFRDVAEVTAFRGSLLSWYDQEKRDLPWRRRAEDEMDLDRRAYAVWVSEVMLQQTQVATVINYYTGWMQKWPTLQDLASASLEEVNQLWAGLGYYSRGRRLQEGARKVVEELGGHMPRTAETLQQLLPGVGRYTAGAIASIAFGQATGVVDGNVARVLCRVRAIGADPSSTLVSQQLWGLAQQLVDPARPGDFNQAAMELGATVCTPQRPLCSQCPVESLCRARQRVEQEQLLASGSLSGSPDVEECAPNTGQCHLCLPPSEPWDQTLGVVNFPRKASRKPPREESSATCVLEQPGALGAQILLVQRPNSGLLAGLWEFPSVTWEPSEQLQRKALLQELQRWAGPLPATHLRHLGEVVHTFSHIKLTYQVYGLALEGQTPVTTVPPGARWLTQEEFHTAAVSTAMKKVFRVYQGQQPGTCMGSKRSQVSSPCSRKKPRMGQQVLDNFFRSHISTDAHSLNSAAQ
Description: Inhibition of MUTYH by quantifying inhibition of MUTYH-mediated cleavage and dissociation of quenched duplex DNA oligonucleotides, measured as fluorescence at 594 nm. To generate a functional strand incision and increase turn-over this assay is coupled to APE1.

[3] = target: Endonuclease 8-like 1 (Homo sapiens) (UniProt Q96FI4);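 further: fluorescence at 594 nm from quenched duplex DNA oligonucleotides released by NEIL1 cleavage and strand separation, reported as reduction of this enzyme activity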
Endonuclease 8-like 1 (Homo sapiens), sequence (Q96FI4 whole entry): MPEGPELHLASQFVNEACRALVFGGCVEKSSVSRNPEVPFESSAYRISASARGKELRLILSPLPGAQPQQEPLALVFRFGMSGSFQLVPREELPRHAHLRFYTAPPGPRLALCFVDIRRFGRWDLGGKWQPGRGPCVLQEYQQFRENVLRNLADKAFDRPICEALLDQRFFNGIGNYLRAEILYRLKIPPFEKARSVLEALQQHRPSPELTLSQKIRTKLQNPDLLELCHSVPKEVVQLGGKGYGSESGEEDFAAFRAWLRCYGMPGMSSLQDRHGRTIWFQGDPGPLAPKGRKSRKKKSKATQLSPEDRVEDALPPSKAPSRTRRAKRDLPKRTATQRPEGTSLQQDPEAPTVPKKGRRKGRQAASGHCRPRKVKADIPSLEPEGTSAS
Description: Inhibition of NEIL1 by quantifying inhibition of NEIL1-mediated cleavage and dissociation of quenched duplex DNA oligonucleotides, measured as fluorescence at 594 nm.

[4] = target: T2, Endonuclease 8-like 2 (Homo sapiens) (UniProt Q969S2);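 further: fluorescence at 594 nm reports NEIL2 cutting and release of a quenched double-stranded DNA oligo substrate, reduced signal read as inhibition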
T2 sequence (whole entry): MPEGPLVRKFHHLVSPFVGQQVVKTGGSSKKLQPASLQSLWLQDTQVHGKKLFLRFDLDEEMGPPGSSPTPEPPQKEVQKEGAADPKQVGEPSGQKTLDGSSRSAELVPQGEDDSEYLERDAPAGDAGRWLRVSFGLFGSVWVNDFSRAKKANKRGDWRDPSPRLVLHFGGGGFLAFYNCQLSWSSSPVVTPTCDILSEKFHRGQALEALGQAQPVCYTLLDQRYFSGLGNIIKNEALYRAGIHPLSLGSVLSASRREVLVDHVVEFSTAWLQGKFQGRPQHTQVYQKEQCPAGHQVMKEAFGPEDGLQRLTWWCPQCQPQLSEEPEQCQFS
Description: Inhibition of NEIL2 by quantifying inhibition of NEIL2-mediated cleavage and dissociation of quenched duplex DNA oligonucleotides, measured as fluorescence at 594 nm.

[5] = target: T3, Single-strand selective monofunctional uracil DNA glycosylase (Homo sapiens) (UniProt Q53HV7);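 further: enzymatic SMUG1 assay coupled with APE1, reading fluorescence at 594 nm released when a quenched double-stranded DNA oligonucleotide substrate is cleaved and separated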
T3 sequence (whole entry): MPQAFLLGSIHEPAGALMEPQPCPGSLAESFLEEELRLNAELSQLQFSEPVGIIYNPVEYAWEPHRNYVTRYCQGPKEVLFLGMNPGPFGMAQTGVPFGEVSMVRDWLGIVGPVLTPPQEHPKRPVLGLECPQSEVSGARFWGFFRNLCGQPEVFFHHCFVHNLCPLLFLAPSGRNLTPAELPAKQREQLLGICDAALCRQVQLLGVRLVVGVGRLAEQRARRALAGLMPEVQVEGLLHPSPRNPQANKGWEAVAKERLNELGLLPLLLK
Description: Inhibition of SMUG1 by quantifying inhibition of SMUG1-mediated cleavage and dissociation of quenched duplex DNA oligonucleotides, measured as fluorescence at 594 nm. To generate a functional strand incision and increase turn-over this assay is coupled to APE1.

[6] = target: G/T mismatch-specific thymine DNA glycosylase (Homo sapiens) (UniProt Q13569);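 further: human TDG cleavage of quenched duplex DNA oligonucleotides coupled to APE1, strand release read as fluorescence at 594 nm, inhibition of TDG activity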
G/T mismatch-specific thymine DNA glycosylase (Homo sapiens), sequence (Q13569 whole entry): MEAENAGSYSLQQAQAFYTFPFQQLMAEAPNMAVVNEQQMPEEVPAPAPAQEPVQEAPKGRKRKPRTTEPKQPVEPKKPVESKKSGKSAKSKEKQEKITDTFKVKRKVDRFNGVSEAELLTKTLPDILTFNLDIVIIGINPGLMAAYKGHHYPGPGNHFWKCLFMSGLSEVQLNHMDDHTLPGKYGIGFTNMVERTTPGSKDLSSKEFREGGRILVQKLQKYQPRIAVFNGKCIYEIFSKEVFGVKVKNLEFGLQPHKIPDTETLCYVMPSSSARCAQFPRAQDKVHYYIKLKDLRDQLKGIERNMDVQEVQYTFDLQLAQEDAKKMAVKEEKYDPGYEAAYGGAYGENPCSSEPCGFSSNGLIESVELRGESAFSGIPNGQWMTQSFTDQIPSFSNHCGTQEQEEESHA
Description: Inhibition of TDG by quantifying inhibition of TDG-mediated cleavage and dissociation of quenched duplex DNA oligonucleotides, measured as fluorescence at 594 nm. To generate a functional strand incision and increase turn-over this assay is coupled to APE1.

[7] = target: Uracil-DNA glycosylase (Homo sapiens) (UniProt P13051);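 further: UNG excision on a quenched double-stranded DNA oligo probe, with APE1 added for strand incision and turnover, read as fluorescence at 594 nm as strands separate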
Uracil-DNA glycosylase (Homo sapiens), sequence (P13051 whole entry): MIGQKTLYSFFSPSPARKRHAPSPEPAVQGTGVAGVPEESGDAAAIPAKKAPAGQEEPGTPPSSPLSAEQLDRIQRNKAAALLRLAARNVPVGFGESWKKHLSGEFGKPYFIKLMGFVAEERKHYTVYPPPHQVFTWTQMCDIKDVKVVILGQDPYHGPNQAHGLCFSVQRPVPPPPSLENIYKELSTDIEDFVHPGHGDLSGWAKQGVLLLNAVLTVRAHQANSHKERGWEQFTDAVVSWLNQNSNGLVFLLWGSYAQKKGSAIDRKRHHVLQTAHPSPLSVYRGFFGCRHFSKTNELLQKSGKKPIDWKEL
Description: Inhibition of UNG by quantifying inhibition of UNG-mediated cleavage and dissociation of quenched duplex DNA oligonucleotides, measured as fluorescence at 594 nm. To generate a functional strand incision and increase turn-over this assay is coupled to APE1.

[8] = target: N-glycosylase/DNA lyase (Homo sapiens) (UniProt O15527);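 further: OGG1 cleavage of a quenched duplex DNA oligonucleotide, coupled to APE1 for strand incision, read as fluorescence at 594 nm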
N-glycosylase/DNA lyase (Homo sapiens), sequence (O15527 whole entry): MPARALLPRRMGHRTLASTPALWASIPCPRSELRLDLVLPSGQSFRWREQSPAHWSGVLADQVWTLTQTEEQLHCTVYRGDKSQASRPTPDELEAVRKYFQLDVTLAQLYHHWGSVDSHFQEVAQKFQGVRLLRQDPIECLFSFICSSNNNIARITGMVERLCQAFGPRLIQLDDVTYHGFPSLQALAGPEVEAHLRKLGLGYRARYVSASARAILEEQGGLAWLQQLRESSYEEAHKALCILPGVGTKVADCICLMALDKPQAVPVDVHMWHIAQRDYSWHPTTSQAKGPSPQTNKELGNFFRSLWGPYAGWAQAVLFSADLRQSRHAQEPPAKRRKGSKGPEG
Description: Inhibition of OGG1 by quantifying inhibition of OGG1-mediated cleavage and dissociation of quenched duplex DNA oligonucleotides, measured as fluorescence at 594 nm. To generate a functional strand incision and increase turn-over this assay is coupled to APE1.

Row | Compound | inhibition ([1]; Compound Concentration 10.0 uM) [%] | inhibition ([2]; Compound Concentration 10.0 uM) [%] | inhibition ([3]; Compound Concentration 10.0 uM) [%] | inhibition ([4]; Compound Concentration 10.0 uM) [%] | inhibition ([5]; Compound Concentration 10.0 uM) [%] | inhibition ([6]; Compound Concentration 10.0 uM) [%] | inhibition ([7]; Compound Concentration 10.0 uM) [%] | inhibition ([8]; Compound Concentration 10.0 uM) [%] | inhibition ([1]; Compound Concentration 1.0 uM) [%] | inhibition ([2]; Compound Concentration 1.0 uM) [%] | inhibition ([3]; Compound Concentration 1.0 uM) [%] | inhibition ([4]; Compound Concentration 1.0 uM) [%] | inhibition ([5]; Compound Concentration 1.0 uM) [%] | inhibition ([6]; Compound Concentration 1.0 uM) [%] | inhibition ([7]; Compound Concentration 1.0 uM) [%] | inhibition ([8]; Compound Concentration 1.0 uM) [%]
1 | CCC(=O)Nc1cccc(Oc2nc(Nc3ccc(N4CCN(C)CC4)cc3OC)ncc2Cl)c1 | -9.91 | -2.48 | -1.18 | -8.65 | 21.8 | 56.8 | -2.02 |  |  |  |  |  |  |  |  | 
2 | Cc1cc(C(=O)N2Cc3cnn(C)c3Nc3ccccc32)ccc1CNC(=O)N1CCC[C@H]1C(=S)N1CCCN(C)CC1 |  | -9.83 | -1.83 | 2.51 | -2.21 | -7.26 |  | -7 |  |  |  |  |  |  |  | 
3 | C[C@@H](N)Cc1c[nH]cn1 |  | -1.26 | 3.8 | -9.22 | -2.12 | 19 | -6.39 | -8 |  |  |  |  |  |  |  | 
4 | NC[C@@H]1O[C@H](C23CC4CC(CC(C4)C2)C3)Cc2c1ccc(O)c2O | -8.04 | 23.1 | 18.5 | 24.7 | 12.4 | 31.8 | -2.15 |  |  |  |  |  |  |  |  | 
5 | CC(C)c1cc(Nc2nc(N3CCC[C@H](N)C3)ncc2C(N)=O)cc(C(C)C)n1 |  |  |  |  |  |  |  |  | -6.11 | 0.673 | -3.69 | 11.5 | 11.3 | 25.2 | 1.59 | 
6 | COc1ccc(S(=O)(=O)c2cc(OC)ccc2S(=O)(=O)c2ccc([C@H](C)NS(C)(=O)=O)cc2)cc1 |  | 12.1 | 2.76 | 4.76 | 4.18 | -5.72 |  | -5.59 |  |  |  |  |  |  |  | 
7 | C[C@@](Cc1c[nH]c2ccccc12)(NC(=O)Nc1ccc([N+](=O)[O-])cc1)C(=O)NCC1(c2ccccn2)CCCCC1 |  | 3.6 | 7.51 | 5.26 | 0.936 | 0.518 |  | -2.05 |  |  |  |  |  |  |  | 
8 | CN([C@@H]1CCc2c(CC(=O)O)c3cc(S(C)(=O)=O)ccc3n2C1)S(=O)(=O)c1ccc(F)cc1 | 53.8 | -3.16 |  |  | 11.2 | 46 | 2.31 | -10 |  |  |  |  |  |  |  | 
9 | Oc1cc2c(cc1O)C(c1ccccc1)CNCC2 (stereo not drawn) |  | 6.16 | -0.945 | 7.5 | -4.15 | 16.1 |  | -0.929 |  |  |  |  |  |  |  | 
10 | CN1CCN(c2ccc(OC(F)(F)F)c(Nc3ncc4c(n3)-c3c(c(C(N)=O)nn3CCO)CC4)c2)CC1 |  |  |  |  |  |  |  |  |  | 27.3 | 1.33 | -8.92 | 13.3 | 38.7 | 3.38 | -4.24
11 | CCc1cccc(CC)c1NC(=O)c1nn(C)c2c1CCc1cnc(Nc3ccc(C(=O)NC4CCN(C)CC4)cc3OC(F)(F)F)nc1-2 | 12.9 | -6.43 | 2.12 | 13.7 | 13.4 | 38.9 | 2.73 |  |  |  |  |  |  |  |  | 
12 | Cc1cc(NC(=O)Nc2ccc(N(C)C)cc2)c2cc(F)cc(F)c2n1 | 6.31 | 6.04 |  |  | -2.31 | 9.41 | -7.93 |  |  |  |  |  |  |  |  | 
13 | CC(C)Oc1ccccc1C(=O)Nc1ccccc1C(=O)Nc1cccc(S(=O)(=O)C(F)(F)F)c1 |  | 8.72 | -8.8 | -0.483 |  | 4.21 | -8.11 |  |  |  |  |  |  |  |  | 
14 | CCCn1c(=O)c2[nH]c(-c3cnn(Cc4cccc(C(F)(F)F)c4)c3)nc2n(CC)c1=O | -7.87 | -1.26 | -6.43 | -0.234 | 4.62 | -4.73 |  | -1.7 |  |  |  |  |  |  |  | 
15 | Clc1cccc(COc2cncc(N3CCNCC3)n2)c1 | -8.79 | 5.27 | 5.13 | 1.26 | 1.71 | -5.02 | -8.45 |  |  |  |  |  |  |  |  | 
16 | CN(c1ccnc(CNc2nc(Nc3ccc4c(c3)CC(=O)N4)ncc2C(F)(F)F)n1)S(C)(=O)=O |  |  |  |  |  |  |  |  | 26.2 | 1.9 | 1.52 | -6.14 | 15.5 | 72 | 0.644 | 
17 | Cc1c(OCc2cccc(-c3ccc(C(=O)O)cc3)c2)cc2c(c1C)C(=O)C(C1CCCC1)C2 (stereo not drawn) | -8.74 | -1.13 | -5.54 | -2.23 | -3.76 | -4.78 |  | 0.771 |  |  |  |  |  |  |  | 
18 | Cc1c(CC(=O)O)c2cccnc2n1Cc1ccc(S(C)(=O)=O)cc1C(F)(F)F |  | 7.57 | 0.834 | 7.75 | -4.39 | -3.98 |  | -4.75 |  |  |  |  |  |  |  | 
19 | CC(C)(O)c1cncc(-c2nc3ccc(F)cc3n2C2CC2)c1 | 59.6 | 11.5 |  |  | 1.08 | 50.2 | -3.32 | 8.25 |  |  |  |  |  |  |  | 
20 | CC(C)C[C@@H]1NC(=O)[C@@H](C(C)C)NC(=O)[C@@H]2CCCN2C(=O)[C@@H](CC(=O)O)NC(=O)[C@@H](Cc2c[nH]c3ccccc23)NC1=O (HELM PEPTIDE1{L.[dW].[dD].P.[dV]}$PEPTIDE1,PEPTIDE1,1:R1-5:R2$$$V2.0) | -8.68 | 6.29 | -3.47 | 0.764 | -0.372 | 0.54 |  |  |  |  |  |  |  |  |  | 
21 | CN1CC(=O)N=C1NC(=O)Nc1cccc(Cl)c1 |  | 3.99 | -2.58 | 3.76 | -1.34 | -6.27 |  | -2.01 |  |  |  |  |  |  |  | 
22 | CCOC(=O)c1c(/C(C#N)=C\N)c2ccc(Cl)c(Cl)c2n1C |  |  |  |  |  |  |  |  |  | -2.85 | -2.9 | -5.96 | 12.4 | 41.6 | 0.379 | -3.98
23 | COc1cc2c(CCNC(C)=O)c[nH]c2cc1Cl | 5.14 | -5.23 | -9.99 | 0.0156 | 0.936 | 4.32 |  | -6.18 |  |  |  |  |  |  |  | 
24 | COc1cccc([C@@H](C)NCCCc2ccccc2Cl)c1 |  | -7.79 | -0.352 |  | 3.94 | 6.54 |  | -9.29 |  |  |  |  |  |  |  | 
25 | C(#Cc1cccc(CN2CCOCC2)c1)CCN1CCCCC1 | 0.0339 | -3.69 | 11.2 | -2.73 | -7.54 | -1.72 |  | -4.46 |  |  |  |  |  |  |  | 
26 | Cc1ccc(Cn2nc(C(=O)N[C@@H]3C(C)(C)[C@@H]4CC[C@@]3(C)C4)cc2-c2ccc(Cl)c(C)c2)cc1 | -2.75 | -0.363 | 10.9 | 7 | -0.0818 | 21.7 |  | -0.971 |  |  |  |  |  |  |  | 
27 | NC[C@H](O)c1ccc(O)c(O)c1 |  | -7.66 | 2.61 | -0.983 |  |  |  | -2.34 |  |  |  |  |  |  |  | 
28 | COc1ccc(C(=O)N2CCN(C(=O)/C=C/c3ccc(Br)cc3)CC2)cc1 |  | 16.7 | 2.61 | -6.97 | -0.421 | -0.119 |  | -3.17 |  |  |  |  |  |  |  | 
29 | Cc1nc[nH]c1CCN |  | -5.1 | -5.39 | -3.73 | -7.49 | 8.2 |  | -7.09 |  |  |  |  |  |  |  | 
